In ChEMBL document CHEMBL3351955, “Identification of potent and selective hydantoin inhibitors of aggrecanase-1 and aggrecanase-2 that are efficacious in both chemical and surgical models of osteoarthritis” (J Med Chem, 2014):

What was measured:
[1] = target: Disintegrin and metalloproteinase domain-containing protein 17 (Homo sapiens, UniProt P78536); test: Inhibition of human TACE using Mca-PQG1 peptide substrate assessed as substrate cleavage after 2 to 4 hrs
[2] = Plasma concentration in rat at 10 mg/kg, po after 2 hrs; type: ADME, organism-based; design: dose 10 mg/kg, route oral
[3] = target: T1, A disintegrin and metalloproteinase with thrombospondin motifs 5 (Homo sapiens, UniProt Q9UNA0); test: Inhibition of human ADAMTS-5 using VQTVTWPDMELPLPRNITEGEARGSVILTVKPIFEVSPSPLKG peptide substrate by AlphaScreen assay
T1 sequence (Q9UNA0 whole entry): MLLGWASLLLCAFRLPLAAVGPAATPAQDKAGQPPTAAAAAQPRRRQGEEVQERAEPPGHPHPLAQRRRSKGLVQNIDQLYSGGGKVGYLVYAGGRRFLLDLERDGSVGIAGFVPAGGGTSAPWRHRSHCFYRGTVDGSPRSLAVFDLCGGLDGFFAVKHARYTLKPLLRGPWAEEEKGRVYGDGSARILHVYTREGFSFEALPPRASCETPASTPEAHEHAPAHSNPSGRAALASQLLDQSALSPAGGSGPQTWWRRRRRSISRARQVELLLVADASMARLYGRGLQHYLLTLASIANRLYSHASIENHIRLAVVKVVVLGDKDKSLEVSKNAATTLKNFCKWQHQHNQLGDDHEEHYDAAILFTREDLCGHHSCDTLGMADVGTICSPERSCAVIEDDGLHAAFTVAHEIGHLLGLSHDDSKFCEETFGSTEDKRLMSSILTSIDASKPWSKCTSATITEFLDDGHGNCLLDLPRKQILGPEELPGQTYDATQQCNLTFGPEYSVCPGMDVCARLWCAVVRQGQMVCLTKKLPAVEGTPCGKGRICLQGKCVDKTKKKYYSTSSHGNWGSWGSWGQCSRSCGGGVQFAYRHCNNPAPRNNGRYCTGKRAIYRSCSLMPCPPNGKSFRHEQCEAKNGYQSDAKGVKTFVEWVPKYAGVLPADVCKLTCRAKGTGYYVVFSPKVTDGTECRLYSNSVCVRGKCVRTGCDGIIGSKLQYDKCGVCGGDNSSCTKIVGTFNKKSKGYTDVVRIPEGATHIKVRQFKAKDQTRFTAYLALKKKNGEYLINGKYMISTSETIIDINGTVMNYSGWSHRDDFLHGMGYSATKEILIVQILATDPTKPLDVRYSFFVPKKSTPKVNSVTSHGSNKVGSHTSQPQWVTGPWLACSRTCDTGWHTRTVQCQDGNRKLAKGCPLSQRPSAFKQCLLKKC

[4] = target: 72 kDa type IV collagenase (Homo sapiens, UniProt P08253); test: Inhibition of human MMP2 using Mca-PQG1 peptide substrate assessed as substrate cleavage after 2 to 4 hrs
72 kDa type IV collagenase, sequence (P08253 whole entry): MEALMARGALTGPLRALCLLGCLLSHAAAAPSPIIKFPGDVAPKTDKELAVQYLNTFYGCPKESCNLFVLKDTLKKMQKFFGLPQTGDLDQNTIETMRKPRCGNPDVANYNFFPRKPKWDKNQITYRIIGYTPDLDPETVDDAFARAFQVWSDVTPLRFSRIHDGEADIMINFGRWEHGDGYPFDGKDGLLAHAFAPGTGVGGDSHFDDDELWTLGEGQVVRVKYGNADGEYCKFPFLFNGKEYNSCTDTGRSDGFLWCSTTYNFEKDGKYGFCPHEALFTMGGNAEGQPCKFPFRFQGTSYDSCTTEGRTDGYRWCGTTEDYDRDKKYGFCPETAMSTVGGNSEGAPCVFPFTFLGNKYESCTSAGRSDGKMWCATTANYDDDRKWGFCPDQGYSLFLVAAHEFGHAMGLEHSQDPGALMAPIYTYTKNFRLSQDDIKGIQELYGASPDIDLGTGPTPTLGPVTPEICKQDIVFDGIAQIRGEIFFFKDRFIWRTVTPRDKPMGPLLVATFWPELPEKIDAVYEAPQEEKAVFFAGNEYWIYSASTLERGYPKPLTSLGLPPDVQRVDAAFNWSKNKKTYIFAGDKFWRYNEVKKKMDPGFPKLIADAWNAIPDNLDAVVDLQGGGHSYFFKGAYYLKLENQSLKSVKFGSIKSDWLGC

[5] = target: Matrix metalloproteinase-14 (Homo sapiens, UniProt P50281); test: Inhibition of human MMP14 using Mca-PQG1 peptide substrate assessed as substrate cleavage after 2 to 4 hrs
[6] = Plasma concentration in rat at 10 mg/kg, po after 8 hrs; type: ADME, organism-based; design: dose 10 mg/kg, route oral
[7] = target: Stromelysin-1 (Homo sapiens, UniProt P08254); test: Inhibition of human MMP3 using Mca-PQG1 peptide substrate assessed as substrate cleavage after 2 to 4 hrs
Stromelysin-1, sequence (P08254 whole entry): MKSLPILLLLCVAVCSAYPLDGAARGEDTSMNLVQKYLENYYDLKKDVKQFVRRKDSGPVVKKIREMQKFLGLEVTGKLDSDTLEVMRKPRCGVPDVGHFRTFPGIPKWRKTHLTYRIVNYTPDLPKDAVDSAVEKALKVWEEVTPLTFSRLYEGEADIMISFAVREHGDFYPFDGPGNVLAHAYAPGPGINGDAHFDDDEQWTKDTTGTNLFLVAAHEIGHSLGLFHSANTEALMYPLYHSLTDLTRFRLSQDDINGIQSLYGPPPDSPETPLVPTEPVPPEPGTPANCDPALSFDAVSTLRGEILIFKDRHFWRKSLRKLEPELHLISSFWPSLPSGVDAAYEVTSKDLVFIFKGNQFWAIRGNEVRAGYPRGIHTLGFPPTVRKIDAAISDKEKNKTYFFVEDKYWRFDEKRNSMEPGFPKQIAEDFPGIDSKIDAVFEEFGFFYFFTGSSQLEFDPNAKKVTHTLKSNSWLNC

[8] = target: T2, A disintegrin and metalloproteinase with thrombospondin motifs 4 (Homo sapiens, UniProt O75173); test: Inhibition of human ADAMTS-4 using VQTVTWPDMELPLPRNITEGEARGSVILTVKPIFEVSPSPLKG peptide substrate by AlphaScreen assay
T2 sequence (O75173 whole entry): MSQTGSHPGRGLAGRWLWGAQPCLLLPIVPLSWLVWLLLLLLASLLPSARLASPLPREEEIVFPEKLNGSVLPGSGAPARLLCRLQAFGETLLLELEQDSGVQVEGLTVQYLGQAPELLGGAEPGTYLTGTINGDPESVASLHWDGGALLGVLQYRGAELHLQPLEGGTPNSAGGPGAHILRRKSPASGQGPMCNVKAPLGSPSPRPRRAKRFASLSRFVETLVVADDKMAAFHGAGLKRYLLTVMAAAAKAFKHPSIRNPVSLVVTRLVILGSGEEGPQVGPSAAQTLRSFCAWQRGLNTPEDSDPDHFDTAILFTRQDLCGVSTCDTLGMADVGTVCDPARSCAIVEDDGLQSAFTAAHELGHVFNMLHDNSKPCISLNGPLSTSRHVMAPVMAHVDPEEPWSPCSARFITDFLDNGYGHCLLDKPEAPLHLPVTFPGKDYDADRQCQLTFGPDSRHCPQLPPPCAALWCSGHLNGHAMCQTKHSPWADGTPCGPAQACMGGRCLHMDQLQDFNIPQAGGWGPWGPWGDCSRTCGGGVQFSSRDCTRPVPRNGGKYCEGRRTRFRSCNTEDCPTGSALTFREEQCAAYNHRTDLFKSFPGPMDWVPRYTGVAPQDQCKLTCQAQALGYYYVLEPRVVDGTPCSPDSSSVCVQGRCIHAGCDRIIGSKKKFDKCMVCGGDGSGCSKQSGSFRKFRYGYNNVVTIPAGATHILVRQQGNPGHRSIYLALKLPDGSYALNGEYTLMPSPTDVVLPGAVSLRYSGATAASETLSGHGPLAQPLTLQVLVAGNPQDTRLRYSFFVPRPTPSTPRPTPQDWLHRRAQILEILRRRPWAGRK

[9] = target: Collagenase 3 (Homo sapiens, UniProt P45452); test: Inhibition of human MMP13 using Mca-PQG1 peptide substrate assessed as substrate cleavage after 2 to 4 hrs
[10] = target: T1, A disintegrin and metalloproteinase with thrombospondin motifs 5; test: Inhibition of human ADAMTS-5 using VQTVTWPDMELPLPRNITEGEARGSVILTVKPIFEVSPSPLKG peptide substrate by AlphaScreen assay in presence of 50% rat plasma
[11] = Oral bioavailability in Sprague-Dawley rat; type: ADME, organism-based; details: in vivo
[12] = Metabolic stability in rat liver microsomes assessed as compound degradation after 30 mins by LC-MS analysis; type: ADME, Microsome; details: read-out: Drug degradation
[13] = target: Cytochrome P450 2D6 (Homo sapiens, UniProt P10635); test: Inhibition of human CYP2D6; type: ADME
Cytochrome P450 2D6, sequence (P10635 whole entry): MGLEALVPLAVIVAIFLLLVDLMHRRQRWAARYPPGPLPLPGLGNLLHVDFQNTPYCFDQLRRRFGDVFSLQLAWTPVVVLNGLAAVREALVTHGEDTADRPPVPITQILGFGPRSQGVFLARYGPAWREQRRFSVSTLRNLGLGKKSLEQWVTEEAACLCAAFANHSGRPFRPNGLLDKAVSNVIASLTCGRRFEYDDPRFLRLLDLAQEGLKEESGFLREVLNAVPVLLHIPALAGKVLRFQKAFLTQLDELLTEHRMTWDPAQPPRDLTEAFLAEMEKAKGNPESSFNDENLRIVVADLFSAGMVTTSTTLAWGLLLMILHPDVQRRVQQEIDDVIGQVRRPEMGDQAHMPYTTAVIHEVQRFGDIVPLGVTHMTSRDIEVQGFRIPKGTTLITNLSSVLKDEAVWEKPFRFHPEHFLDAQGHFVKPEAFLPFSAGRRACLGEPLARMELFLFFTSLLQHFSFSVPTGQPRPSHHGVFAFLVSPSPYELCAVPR

[14] = Metabolic stability in human liver microsomes assessed as compound degradation after 30 mins by LC-MS analysis; type: ADME, Microsome; details: read-out: Drug degradation
[15] = target: Cytochrome P450 3A4 (Homo sapiens, UniProt P08684); test: Inhibition of human CYP3A4; type: ADME
Cytochrome P450 3A4, sequence (P08684 whole entry): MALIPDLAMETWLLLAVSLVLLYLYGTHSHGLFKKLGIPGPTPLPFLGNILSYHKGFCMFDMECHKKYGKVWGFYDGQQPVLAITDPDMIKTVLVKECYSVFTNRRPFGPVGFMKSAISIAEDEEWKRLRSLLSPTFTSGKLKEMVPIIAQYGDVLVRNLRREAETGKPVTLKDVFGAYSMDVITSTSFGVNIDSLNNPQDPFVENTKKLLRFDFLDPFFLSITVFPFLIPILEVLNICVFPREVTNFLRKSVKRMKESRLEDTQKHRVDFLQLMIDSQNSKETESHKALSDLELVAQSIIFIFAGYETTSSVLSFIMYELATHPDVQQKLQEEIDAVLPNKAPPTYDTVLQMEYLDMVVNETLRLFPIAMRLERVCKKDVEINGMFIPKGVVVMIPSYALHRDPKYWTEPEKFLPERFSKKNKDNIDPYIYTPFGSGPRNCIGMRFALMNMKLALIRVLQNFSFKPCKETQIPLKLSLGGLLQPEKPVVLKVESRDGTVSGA

[16] = target: Cytochrome P450 2C9 (Homo sapiens, UniProt P11712); test: Inhibition of human CYP2C9; type: ADME
Cytochrome P450 2C9, sequence (P11712 whole entry): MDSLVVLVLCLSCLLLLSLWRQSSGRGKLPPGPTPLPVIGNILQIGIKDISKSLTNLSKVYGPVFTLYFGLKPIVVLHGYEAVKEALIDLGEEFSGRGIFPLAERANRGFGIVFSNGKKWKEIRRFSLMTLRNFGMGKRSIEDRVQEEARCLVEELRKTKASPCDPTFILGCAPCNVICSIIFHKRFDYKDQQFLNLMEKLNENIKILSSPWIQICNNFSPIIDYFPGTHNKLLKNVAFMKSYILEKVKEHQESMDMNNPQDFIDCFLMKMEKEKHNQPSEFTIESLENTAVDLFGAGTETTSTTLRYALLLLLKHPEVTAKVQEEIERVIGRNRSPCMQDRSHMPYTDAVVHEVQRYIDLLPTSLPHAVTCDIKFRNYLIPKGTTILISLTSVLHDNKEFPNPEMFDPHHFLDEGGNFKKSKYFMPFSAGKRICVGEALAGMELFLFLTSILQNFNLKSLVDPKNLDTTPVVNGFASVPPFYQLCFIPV

[17] = Cmax in Sprague-Dawley rat at 10 mg/kg, po; type: ADME, organism-based; design: dose 10 mg/kg, route oral; details: in vivo
[18] = tested on: Rattus norvegicus; test: Reduction in ADAMTS-4/ADAMTS-5-mediated aggrecan cleavage products in po dosed Lewis rat MIA model assessed as aggrecanase-cleaved fragments treatment starting from day 3 and single dose given on day 7 followed by animal sacrificed 4 hrs later by NITEGE sandwich ELISA assay; type: functional
[19] = AUC in Sprague-Dawley rat at 10 mg/kg, po; type: ADME, organism-based; design: dose 10 mg/kg, route oral; details: plasma
[20] = Clearance in Sprague-Dawley rat; type: ADME, organism-based; details: in vivo
[21] = Half life in Sprague-Dawley rat at 10 mg/kg, po; type: ADME, organism-based; design: dose 10 mg/kg, route oral; details: in vivo
[22] = Tmax in Sprague-Dawley rat at 10 mg/kg, po; type: ADME, organism-based; design: dose 10 mg/kg, route oral; details: in vivo
[23] = organism: Rattus norvegicus; test: Reduction in meniscal tear-induced osteoarthritis total joint score in chronic BID Lewis rat surgical model; type: functional, organism-based

Disintegrin and metalloproteinase domain-containing protein 17, sequence (P78536 whole entry, the tested form may be a part): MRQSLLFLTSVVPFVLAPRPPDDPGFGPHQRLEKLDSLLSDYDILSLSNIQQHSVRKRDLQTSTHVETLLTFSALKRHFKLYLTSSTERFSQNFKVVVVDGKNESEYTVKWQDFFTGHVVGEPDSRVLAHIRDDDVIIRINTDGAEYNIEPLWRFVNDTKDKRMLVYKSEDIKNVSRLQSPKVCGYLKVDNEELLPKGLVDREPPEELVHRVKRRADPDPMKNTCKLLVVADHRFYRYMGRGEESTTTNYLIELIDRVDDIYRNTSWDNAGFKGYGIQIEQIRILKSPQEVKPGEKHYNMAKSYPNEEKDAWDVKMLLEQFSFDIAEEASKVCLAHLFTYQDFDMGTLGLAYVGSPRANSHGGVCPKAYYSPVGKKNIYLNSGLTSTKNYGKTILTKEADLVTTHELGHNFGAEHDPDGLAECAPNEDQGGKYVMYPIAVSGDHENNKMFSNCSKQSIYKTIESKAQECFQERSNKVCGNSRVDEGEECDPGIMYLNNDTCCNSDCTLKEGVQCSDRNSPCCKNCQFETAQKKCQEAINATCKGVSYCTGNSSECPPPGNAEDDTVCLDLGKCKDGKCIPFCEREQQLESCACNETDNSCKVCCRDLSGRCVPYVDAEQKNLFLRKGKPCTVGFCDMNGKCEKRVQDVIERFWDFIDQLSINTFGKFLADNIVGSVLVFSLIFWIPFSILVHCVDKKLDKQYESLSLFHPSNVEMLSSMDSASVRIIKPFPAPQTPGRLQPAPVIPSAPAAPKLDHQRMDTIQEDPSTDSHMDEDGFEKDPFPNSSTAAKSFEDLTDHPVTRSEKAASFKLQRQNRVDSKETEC

| Structure (SMILES) | IC50 [1] [nM] | concentration at 2 h [2] [ng/mL] | IC50 [3] [nM] | IC50 [4] [nM] | IC50 [5] [nM] | concentration at 8 h [6] [ng/mL] | IC50 [7] [nM] | IC50 [8] [nM] | IC50 [9] [nM] | IC50 [10] [nM] | bioavailability [11] [%] | metabolised at 0.5 h [12] [%] | metabolised at 0.5 h [14] [%] | Cmax [17] [ng/mL] | AUC [19] [ng·h/mL] | clearance [20] [mL/min/kg] | half-life [21] [h] | Tmax [22] [h] | also measured |
| --- | --- | --- | --- | --- | --- | --- | --- | --- | --- | --- | --- | --- | --- | --- | --- | --- | --- | --- | --- |
| C[C@]1(CNC(=O)c2cc3cc(Cl)ccc3o2)NC(=O)NC1=O (racemic) | – | – | 150 | – | – | – | – | 110 | – | 2400 | – | – | – | – | – | – | – | – | – |
| O=C1NC(=O)[C@](CNC(=O)c2cc3cc(Cl)ccc3o2)(c2ccccc2)N1 | 5400 | < 200 | 22 | 2100 | 3500 | – | 3000 | 12 | 720 | 420 | – | – | – | – | – | – | – | – | – |
| Cc1cccnc1[C@]1(CNC(=O)c2cc3cc(Cl)ccc3o2)NC(=O)NC1=O (racemic) | – | – | 19 | 6100 | 18000 | – | 20000 | 17 | 3100 | 1700 | – | – | – | – | – | – | – | – | – |
| O=C1NC(=O)[C@](CNC(=O)c2cc3cc(Cl)ccc3o2)(c2nccs2)N1 | – | 4300 | – | – | – | 1300 | – | – | – | – | 72 | 16 | 16 | 6900 | 28000 | 4 | 3.2 | 0.33 | – |
| C[C@]1(CNC(=O)COc2ccc(Cl)cc2)NC(=O)NC1=O | – | 430 | 350 | 24000 | > 50000 | 50 | 50000 | 74 | 7000 | 620 | – | – | – | – | – | – | – | – | – |
| Cn1nccc1[C@]1(CNC(=O)c2cc3cc(Cl)ccc3o2)NC(=O)NC1=O | – | – | 19 | 7100 | 8600 | – | 64000 | 22 | 4700 | 530 | – | – | – | – | – | – | – | – | – |

The remaining molecules from weak to strong by IC50 [3], led by results:

| IC50 [1] [nM] | concentration at 2 h [2] [ng/mL] | IC50 [3] [nM] | IC50 [4] [nM] | IC50 [5] [nM] | concentration at 8 h [6] [ng/mL] | IC50 [7] [nM] | IC50 [8] [nM] | IC50 [9] [nM] | IC50 [10] [nM] | bioavailability [11] [%] | metabolised at 0.5 h [12] [%] | metabolised at 0.5 h [14] [%] | Cmax [17] [ng/mL] | AUC [19] [ng·h/mL] | clearance [20] [mL/min/kg] | half-life [21] [h] | Tmax [22] [h] | Structure (SMILES) | also measured |
| --- | --- | --- | --- | --- | --- | --- | --- | --- | --- | --- | --- | --- | --- | --- | --- | --- | --- | --- | --- |
| – | 2200 | 9 | 7500 | > 100000 | 80 | 38000 | 5 | 4200 | 110 | 58 | 13 | 17 | 4100 | 8100 | 13 | 4.2 | 0.33 | Cn1ccnc1[C@]1(CNC(=O)c2cc3cc(Cl)ccc3o2)NC(=O)NC1=O | inhibition (INH) [13]: < 5%; inhibition (INH) [15]: < 5%; inhibition (INH) [16]: < 5%; ED50 [18]: 75 mg/kg |
| 10000 | 1100 | 4 | 11000 | 86000 | 90 | 69000 | 4 | 30000 | 35 | 25 | 7 | < 5 | 3200 | 8500 | 4.8 | 4.3 | 1.6 | Cn1ccnc1[C@]1(CNC(=O)c2cc3cc(C(F)(F)F)ccc3o2)NC(=O)NC1=O | inhibition (INH) [13]: < 5%; inhibition (INH) [15]: < 5%; inhibition (INH) [16]: < 5%; ED50 [18]: 30 mg/kg; inhibition [23]: Dose-dependent effect |
| 7 | 1900 | 1 | 5 | 150 | 840 | 3 | 1 | 1 | 18 | – | – | – | – | – | – | – | – | C[C@@]1(O)CCCN(S(=O)(=O)c2ccc(OCc3ccc(F)cc3Cl)cc2)[C@H]1C(=O)NO | – |
